Values quoted from earlier work as cited in patent publication US7375230B2, “Fermentation and purification of migrastatin and analog” (Kosan Biosciences, Inc., priority 2000, dated 2008).

Legend:
mouse melanoma B16 cells = details: compared with clarithromycin and erythromycin
[1] = tested on: human esophageal cancer EC17 cells; details: compared with clarithromycin and erythromycin

## CO[C@H]1/C=C/CC/C=C/C(=O)O[C@H]([C@H](C)C(=O)CCCC2CC(=O)NC(=O)C2)/C(C)=C\[C@@H](C)[C@@H]1O [Migrastatin, migrastatin]
Mouse melanoma B16 cells
  effectiveness against the migration of cells: more effective than clarithromycin and erythromycin
[1]
  effectiveness against the migration of cells: more effective than clarithromycin and erythromycin
